# Measured values: patent publication US20230203041A1, “ANTAGONISTS OF THE ADENOSINE A2A RECEPTOR” (AdoRx Therapeutics Limited, priority 2020, published 2023)
# Counter-ions that a name gives are not always drawn.
# Assays:
# [1] = biological target: T1, human Adenosine A2a receptor (Homo sapiens, UniProt P29274); experiment: Adenosine receptor TR-FRET binding assay (CA200645 displacement), A2a; settings: 100 nM CA200645, CHO cell membranes, 2 hours at room temperature
# T1 construct: expressed in transfected cells; host or cells: CHO cell membranes
# T1 sequence (P29274 whole entry): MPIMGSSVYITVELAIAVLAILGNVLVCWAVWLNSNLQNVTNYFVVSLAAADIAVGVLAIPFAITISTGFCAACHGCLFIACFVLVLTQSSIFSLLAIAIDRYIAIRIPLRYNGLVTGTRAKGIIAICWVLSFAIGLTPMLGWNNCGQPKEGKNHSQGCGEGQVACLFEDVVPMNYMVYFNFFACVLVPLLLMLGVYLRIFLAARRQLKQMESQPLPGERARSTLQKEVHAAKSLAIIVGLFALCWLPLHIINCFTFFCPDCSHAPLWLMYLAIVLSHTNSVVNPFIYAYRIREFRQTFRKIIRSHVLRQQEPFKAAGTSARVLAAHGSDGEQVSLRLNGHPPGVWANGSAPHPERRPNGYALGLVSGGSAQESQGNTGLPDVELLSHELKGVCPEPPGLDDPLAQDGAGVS
# [2] = biological target: T2, human Adenosine A2b receptor (Homo sapiens, UniProt P29275); experiment: Adenosine receptor TR-FRET binding assay (CA200645 displacement), A2b; settings: 30 nM CA200645, CHO cell membranes, 2 hours at room temperature
# T2 construct: expressed in transfected cells; host or cells: CHO cell membranes
# T2 sequence (P29275 1-332): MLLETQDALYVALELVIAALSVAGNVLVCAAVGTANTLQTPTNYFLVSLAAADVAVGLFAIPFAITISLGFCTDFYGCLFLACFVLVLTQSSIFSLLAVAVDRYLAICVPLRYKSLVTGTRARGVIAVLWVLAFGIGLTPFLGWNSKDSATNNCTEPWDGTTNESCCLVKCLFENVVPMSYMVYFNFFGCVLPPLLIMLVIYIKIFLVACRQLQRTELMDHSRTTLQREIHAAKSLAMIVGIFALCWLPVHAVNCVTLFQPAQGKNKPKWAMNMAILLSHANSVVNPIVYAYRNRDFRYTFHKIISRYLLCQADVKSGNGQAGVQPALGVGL
# [3] = biological target: T3, human Adenosine A1 receptor (Homo sapiens, UniProt P30542); experiment: Adenosine receptor TR-FRET binding assay (CA200645 displacement), A1
# T3 sequence (P30542 1-326): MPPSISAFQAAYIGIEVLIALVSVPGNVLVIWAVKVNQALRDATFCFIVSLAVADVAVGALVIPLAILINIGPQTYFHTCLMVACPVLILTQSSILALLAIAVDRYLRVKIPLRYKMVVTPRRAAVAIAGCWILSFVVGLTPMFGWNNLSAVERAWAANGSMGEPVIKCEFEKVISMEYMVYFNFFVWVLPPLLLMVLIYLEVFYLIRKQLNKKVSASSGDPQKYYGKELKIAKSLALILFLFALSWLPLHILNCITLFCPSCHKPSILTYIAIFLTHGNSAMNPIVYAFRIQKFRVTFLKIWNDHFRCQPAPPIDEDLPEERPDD
# Description: (§1) All FRET binding experiments were conducted at room temperature in white 384-well plates, in assay binding buffer containing 1×LabMed (Cisbio, France), 100 μg/mL saponin, 1% DMSO and 0.02% pluronic acid. Binding of the fluorescently labelled Adenosine receptor antagonist XAC (CA200645, FRET acceptor) to terbium-labelled A1, A2a, A2b and A3 adenosine receptors (FRET donors) was detected by time-resolved FRET due to the close proximity of the donor and acceptor in a binding event. To investigate the ability of unlabelled test compounds to bind to Adenosine A1, A2a, A2b and A3 receptors, dose response curves were constructed that determined the ability of a range of concentrations to inhibit the binding of 30 nM CA200645 to the A2b receptor and 100 nM CA200645 to the A1, A2a, and A3 receptor.
# (§2) Serial dilution (1:3 dilutions) of test compounds in neat DMSO and transfer of a 400 nL sample of test compound into the assay plate was carried out using the Mosquito (TTP Labtech, UK). The compound samples were incubated for 2 hours at room temperature with a fixed concentration of CA200645 defined for each receptor (see above) and CHO cell membranes containing the human Adenosine A1 (0.5 μg/well), A2a (0.3 μg/well), A2b (1 μg/well) or A3 (1 μg/well) receptor in 40 μL of assay buffer. Total and non-specific binding of CA200645 was determined in the absence and presence of 10 μM XAC, respectively. Following 2 hours incubation, the level of CA200645 binding was detected on a Pherastar FSX (BMG Labtech, Germany) using standard TR-FRET settings. The terbium donor was excited with three laser flashes at a wavelength of 337 nm, and donor and acceptor emission was detected at 620 nm and 665 nm wavelengths, respectively. FRET ratios were obtained by multiplying the acceptor/donor ratio value by 10,000. Specific binding was determined by subtracting the non-specific binding FRET ratio from the total binding FRET ratio. Compound IC50 curves were analysed using GraphPad Prism 7.0 (GraphPad, USA) and Ki affinity values were determined from the obtained IC50 values using the method of Cheng and Prusoff.
# [4] = biological target: T4, human Adenosine A3 receptor (Homo sapiens, UniProt P0DMS8); experiment: Adenosine receptor TR-FRET binding assay (CA200645 displacement), A3
# T4 sequence (P0DMS8 1-318): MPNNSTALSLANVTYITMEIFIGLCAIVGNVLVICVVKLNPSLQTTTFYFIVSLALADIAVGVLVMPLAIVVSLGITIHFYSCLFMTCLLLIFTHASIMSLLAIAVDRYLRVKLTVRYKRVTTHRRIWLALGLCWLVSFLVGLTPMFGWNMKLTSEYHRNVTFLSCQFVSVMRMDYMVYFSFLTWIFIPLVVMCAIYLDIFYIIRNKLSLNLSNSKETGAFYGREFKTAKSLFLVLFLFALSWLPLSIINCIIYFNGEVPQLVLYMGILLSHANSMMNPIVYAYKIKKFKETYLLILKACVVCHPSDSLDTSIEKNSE
# Description: as §1, §2
Ki [1] [µM],Ki [2] [µM],Ki [3] [µM],Ki [4] [µM],Compound
0.0068,0.013,0.672,> 1,"Cc1cc(-c2c(-c3cccc(C#N)c3)nn3ccc(C(=O)NCC4(O)CCNC4)nc23)cc(Cl)n1 (stereo not drawn) [Example 7.6, 3-(2-Chloro-6-methyl-4-pyridyl)-2-(3-cyanophenyl)-N-[(3-hydroxypyrrolidin-3-yl)methyl]pyrazolo[1,5-a]pyrimidine-5-carboxamide]"
0.0017,0.002,0.082,> 1,Cc1cc(-c2c(-c3cccc(C#N)c3)nn3ccc(N4CCN[C@H](C(C)(C)O)C4)nc23)cc(Cl)n1 [Example 2.41]
0.0221,0.025,0.703,> 1,"Cc1cc(-c2c(-c3cccc(C#N)c3)nn3ccc(C(=O)NC4CCNCC4)nc23)cc(Cl)n1 [Example 7.15, 3-(2-Chloro-6-methyl-4-pyridyl)-2-(3-cyanophenyl)-N-(4-piperidyl)pyrazolo[1,5-a]pyrimidine-5-carboxamide]"
0.013,0.057,0.652,> 1,Cc1cc(-c2c(-c3cccc(C#N)c3)nn3ccc(C(=O)NC[C@@H]4CCC(=O)N4)nc23)cc(C)n1 [Example 92.33]
0.0005,0.004,0.149,> 1,Cc1cc(-c2c(-c3cccc(C#N)c3)nn3ccc(NC4CCN(C)CC4)nc23)cc(Cl)n1 [Example 2.42]
0.0024,0.01,0.16,> 1,"Cc1cc(-c2c(-c3cccc(C#N)c3)nn3ccc(C(=O)NC4(C)CCNC4)nc23)cc(Cl)n1 (stereo not drawn) [Example 7.8, 3-(2-Chloro-6-methyl-4-pyridyl)-2-(3-cyanophenyl)-N-(3-methylpyrrolidin-3-yl)pyrazolo[1,5-a]pyrimidine-5-carboxamide]"
0.0131,0.028,0.118,> 1,"CCn1nccc1-c1c(-c2cccc(C#N)c2)nn2ccc(NCC(C)(C)O)nc12 [Example 33, 3-[3-(2-Ethylpyrazol-3-yl)-5-[(2-hydroxy-2-methyl-propyl)amino]pyrazolo[1,5-a]pyrimidin-2-yl]benzonitrile]"
0.001,0.034,0.141,> 1,"Cc1cc(-c2c(-c3cccc(C#N)c3)nn3ccc(CCC(C)(C)O)nc23)cc(Cl)n1 [Example 22, 3-[3-(2-Chloro-6-methyl-4-pyridyl)-5-(3-hydroxy-3-methyl-butyl)pyrazolo[1,5-a]pyrimidin-2-yl]benzonitrile]"
0.0357,0.063,0.029,0.536,"Cc1cc(-c2c(-c3ccc(F)cc3)nn3ccc(N)nc23)cc(Cl)n1 [Example 88, 3-(2-Chloro-6-methyl-4-pyridyl)-2-(4-fluorophenyl)pyrazolo[1,5-a]pyrimidin-5-amine]"
0.0332,1.1,0.133,1.74,CC(C)(C)OC(=O)N1CCO[C@H](CNc2ccn3nc(-c4ccco4)c(C#N)c3n2)C1 [Example 37.5]
0.0043,0.019,0.181,> 1,"Cc1cc(-c2c(-c3cccc(C#N)c3)nn3ccc(C(=O)NCC4(N)CC(F)(F)C4)nc23)cc(Cl)n1 [Example 7.10, N-[(1-Amino-3,3-difluoro-cyclobutyl)methyl]-3-(2-chloro-6-methyl-4-pyridyl)-2-(3-cyanophenyl)pyrazolo[1,5-a]pyrimidine-5-carboxamide]"
0.147,2.22,0.172,3.96,"N#Cc1c(-c2ccco2)nn2ccc(N)nc12 [Example 49, 5-Amino-2-(2-furyl)pyrazolo[1,5-a]pyrimidine-3-carbonitrile]"
0.359,2.46,1.12,> 1,"Cc1cc(-c2c(-c3cccc(C#N)c3)nn3ccc(N)nc23)cc(C(=O)O)n1 [Example 28, 4-[5-Amino-2-(3-cyanophenyl)pyrazolo[1,5-a]pyrimidin-3-yl]-6-methyl-pyridine-2-carboxylic acid]"
0.0037,0.006,0.105,> 1,"Cc1cc(-c2c(-c3cccc(C#N)c3)nn3ccc(C(=O)NC45CCC(N)(CC4)C5)nc23)cc(Cl)n1 [Example 6.12, N-(4-Aminonorbornan-1-yl)-3-(2-chloro-6-methyl-4-pyridyl)-2-(3-cyanophenyl)pyrazolo[1,5-a]pyrimidine-5-carboxamide]"
0.0033,0.012,0.043,> 1,"Cc1cc(-c2c(-c3cccc(C#N)c3)nn3ccc(NCC(C)(C)N)nc23)cc(Cl)n1 [Example 4.10, trifluoroacetate]"
0.0011,0.012,0.005,> 1,"Cc1cc(-c2c(-c3cccc(C#N)c3)nn3ccc(N[C@@H](C)[C@H](O)CO)nc23)cc(Cl)n1 [Example 4.9, 3-[3-(2-Chloro-6-methyl-4-pyridyl)-5-[[(1S,2S)-2,3-dihydroxy-1-methyl-propyl]amino]pyrazolo[1,5-a]pyrimidin-2-yl]benzonitrile]"
0.0017,0.018,0.035,> 1,"Cc1cc(-c2c(-c3cccc(C#N)c3)nn3ccc(NC4CCN(C)C(=O)C4)nc23)cc(C)n1 (stereo not drawn) [Example 105.2, 3-[3-(2,6-Dimethyl-4-pyridyl)-5-[(1-methyl-2-oxo-4-piperidyl)amino]pyrazolo[1,5-a]pyrimidin-2-yl]benzonitrile]"
0.0936,5.5,1.95,1.77,"CC(C)(C)OC(=O)N1CC=C(c2ccn3nc(-c4ccco4)c(C#N)c3n2)CC1 [Example 40, tert-butyl 4-[3-cyano-2-(2-furyl)pyrazolo[1,5-a]pyrimidin-5-yl]-3,6-dihydro-2H-pyridine-1-carboxylate]"
0.0014,0.002,0.241,> 1,Cc1cc(-c2c(-c3cccc(C#N)c3)nn3ccc(NC4CCN(CCO)CC4)nc23)cc(Cl)n1 [Example 2.39]
0.0021,0.057,0.333,> 1,Cc1cc(-c2c(-c3cccc(C#N)c3)nn3ccc(C(=O)N[C@@H]4COC[C@H]4O)nc23)cc(C)n1 [Example 92.31]
0.153,1.46,1.14,1.74,"OCc1c(-c2ccco2)nn2ccc(NCc3ccccc3)nc12 [Example 75, [5-(Benzylamino)-2-(2-furyl)pyrazolo[1,5-a]pyrimidin-3-yl]methanol]"
0.0315,0.049,0.13,> 1,"CCN1CCC(NC(=O)Nc2ccn3nc(-c4cccc(C#N)c4)c(-c4cc(C)nc(Cl)c4)c3n2)CC1 [Example 30.2, 1-[3-(2-Chloro-6-methyl-4-pyridyl)-2-(3-cyanophenyl)pyrazolo[1,5-a]pyrimidin-5-yl]-3-(1-ethyl-4-piperidyl)urea]"
0.0075,0.027,0.674,> 1,Cc1cc(-c2c(-c3cccc(C#N)c3)nn3ccc(N[C@H]4CCOC4)nc23)cc(Cl)n1 [Example 2.25]
0.0192,0.115,0.179,> 1,Cc1cc(-c2c(-c3cccc(C#N)c3)nn3ccc(C(=O)NCC4CCC(=O)NC4)nc23)cc(C)n1 (stereo not drawn) [Example 92.19]
